According to patent US20070135431A1, “INHIBITORS OF HISTONE DEACETYLASE FOR THE TREATMENT OF DISEASE” (KALYPSYS, INC, priority 2005, published 2007):

Assays:
HDAC in cells = experiment: Cellular HDAC inhibition (cellular histone hyperacetylation / cytotoxicity assays; Table 1 only says Cellular IC50); format: cell-based; conditions: transformed cell lines (e.g. HeLa, A549, MCF-7); cell line not given
Procedure: 2) Cellular Histone Hyperacetylation Assays:
These two secondary assays evaluate a compound's ability to inhibit HDAC in cells by measuring cellular histone acetylation levels. The cytoblot facilitates quantitative EC50 information for cellular HDAC inhibition. Transformed cell lines (e.g. HeLa, A549, MCF-7) are cultured under standard media and culture conditions prior to plating.
Cells (approx. 2,500/well) are allowed to adhere 10-24 hours to wells of a 384-well Greiner PS assay plate in media containing 1-5% serum. Cells are treated with appropriate compound and specific concentrations for 0 to 24 hours. Cells are washed once with PBS (60 μL) and then fixed (95% ethanol, 5% acetic acid or 2% PFA) for 1 minute at RT (30 μL). Cells are blocked with 1% BSA for 1 hour and washed and stained with antibody (e.g. anti-Acetylated Histone H3, Upstate Biotechnology), followed by washing and incubation with an appropriate secondary antibody conjugated to HRP or fluorophore. For luminescence assays, signal is generated using Luminol substrate (Santa Cruz Biotechnology) and detected using an Aquest plate reader (Molecular Devices).
3) Differential Cytotoxicity Assay:
HDAC inhibitors display differential cytotoxicity toward certain transformed cell lines. Cells are cultured according to standard ATCC recommended conditions that are appropriate to each cell type. Compounds were tested for their ability to kill different cell types (normal and transformed) using the ATPlite luminescence ATP detection assay system (Perkin Elmer). Assays are run in either 384-well or 1536-well Greiner PS plates. Cells (30 μL or 5 μL, respectively) are dispensed using either multichannel pipette for 384-well plates, or proprietary Kalypsys bulk liquid dispenser for 1536-well plates. Compounds added using proprietary pin-transfer device (500 nL or 5 nL) and incubated 5 to 30 hours prior to analysis. Luminescence is measured using Aquest plate reader (Molecular Devices).

HDAC = experiment: In vitro HDAC-inhibition assay (Fluor de Lys fluorescent activity assay); format: biochemical; conditions: HDAC enzyme source (e.g. nuclear extract or immunopurified HDAC complexes), Fluor de Lys substrate, 30 minutes RT
Procedure: 1) In vitro HDAC-inhibition Assay:
This assay measures a compound's ability to inhibit acetyl-lysine deacetylation in vitro and was used as both a primary screening method as well as for IC50 determinations of confirmed inhibitors. The assay is performed in vitro using an HDAC enzyme source (e.g. partially purified nuclear extract or immunopurified HDAC complexes) and a proprietary fluorescent substrate/developer system (HDAC Quantizyme Fluor de Lys Fluorescent Activity Assay, BIOMOL). The assay is run in 1,536-well Greiner white-bottom plates using the following volumes and order of addition: • Step 1: Enzyme (2.5 μL) source added to plate (from refrigerated container) • Step 2: Compounds (50 nL) added with pin transfer device • Step 3: Fluor de Lys (2.5 μL) substrate added, incubate at RT, 30 minutes • Step 4: Developer (5 μL) solution is added (containing TSA), to stop reaction • Step 5: Plate Reader—data collection
The deacetylated fluorophore is excited with 360 nm light and the emitted light (460 nm) is detected on an automated fluorometric plate reader (Aquest, Molecular Devices).

IC50 (HDAC) | Compound | IC50 (HDAC in cells)
≤ 1 µM | CC(=O)SCC(=O)c1ccc(NS(=O)(=O)c2ccc(OCC3CCCN(C)C3)cc2)nc1 (stereo not drawn) [Example 31, Thioacetic acid S-(2-{6-[4-(1-methyl-piperidin-3-ylmethoxy)-benzenesulfonylamino]-pyridin-3-yl}-2-oxo-ethyl) ester] | ≤ 1 µM
≤ 1 µM | CC(=O)SCC(=O)c1ccc(NS(=O)(=O)c2ccc(OC(C)CN3CCCCC3)cc2)nc1 (stereo not drawn) [Example 32, Thioacetic acid S-(2-{6-[4-(1-methyl-2-piperidin-1-yl-ethoxy)-benzenesulfonylamino]-pyridin-3-yl}-2-oxo-ethyl) ester] | ≤ 1 µM
≤ 1 µM | CC(=O)SCC(=O)c1ccc(NS(=O)(=O)c2ccc(OCCCN3CCCC3)cc2)nc1 [Example 33, Thioacetic acid S-(2-oxo-2-{6-[4-(3-pyrrolidin-1-yl-propoxy)-benzenesulfonylamino]-pyridin-3-yl}-ethyl) ester] | ≤ 1 µM
